{"source": "patent US20240108740A1", "about": "“THERAPEUTIC COMPOSITIONS INCLUDING SPN10 AND USES THEREOF” (Stealth BioTherapeutics Inc., priority 2022, published 2024)", "key": {"[1]": {"system": "N2A cells", "assay": "Example 23: caspase activity (FLICA kit)", "type": "cell-based", "design": "dose or concentration left out as unconfirmed", "settings": "12 hours", "protocol": "N2A cells will be grown on 96-well plates, treated with t-BHP (0.05 mM) in the presence of vehicle, peptide conjugates, aromatic-cationic peptides, or SPN10(s) with or without aromatic-cationic peptides at 37° C. for 12-24 hours. All treatments will be carried out in quadruplicate. N2A cells will be incubated with t-BHP ([…]) alone or in the presence of peptide conjugates, aromatic-cationic peptides, or SPN10(s) with or without aromatic-cationic peptides at 37° C. for 12 hours. Cells will be gently lifted from the plates with a cell detachment solution (Accutase, Innovative Cell Technologies, Inc., San Diego, CA, U.S.A.) and will be washed twice in PBS. Caspase activity will be assayed using a FLICA kit (Immunochemistry Technologies LLC, Bloomington, MN). According to the manufacturer's recommendation, cells will be resuspended (approx. 5×10^6 cells/mL) in PBS and labeled with pan-caspase inhibitor FAM-VAD-FMK for 1 hour at 37° C. under 5% CO2 while protected from light. Cells will then be rinsed to remove the unbound reagent and fixed. Fluorescence intensity in the cells will be measured by a laser scanning cytometer (Beckman-Coulter XL, Beckman Coulter, Inc., Fullerton, CA, U.S.A.) using the standard emission filters for green (FL1). For each run, 10,000 individual events will be collected and stored in list-mode files for off-line analysis."}, "[2]": {"system": "neonatal cardiomyocytes", "assay": "Example 57: Ang II-induced mitochondrial ROS (Mitosox, flow cytometry)", "type": "cell-based, mouse", "settings": "Angiotensin II 1 μM, 3 hours", "protocol": "Ventricles from mouse neonates younger than 72 hours will be dissected, minced, and enzymatically digested with Blendzyme 4 (45 mg/mL, Roche). After enzymatic digestion, cardiomyocytes will be enriched using differential pre-plating for 2 hours, and seeded on fibronectin-coated culture dishes for 24 hours in DMEM (Gibco) with 20% Fetal Bovine Serum (Sigma) and 25 μM Arabinosylcytosine (Sigma). Cardiomyocytes will be stimulated with Angiotensin II (1 μM) for 3 hours in serum-free DMEM containing 0.5% insulin transferrin-selenium (Sigma), 2 mM glutamine, and 1 mg/mL BSA. […] Samples will be analyzed using excitation/emission of 488/625 nm by flow cytometry. Flow data will be analyzed using FCS Express (De Novo Software, Los Angeles, CA, U.S.A.), and presented as histogram distributions of Mitosox fluorescence intensity."}, "[3]": {"system": "renal ischemia-reperfusion (IR) injury in rats", "assay": "Mitochondrial respiration and ATP synthesis after renal ischemia-reperfusion injury", "type": "in vivo, rat", "settings": "45 minutes renal artery occlusion, 20 minutes or 1 hour reperfusion", "protocol": "Animals will be subjected to bilateral occlusion of renal artery for 45 minutes followed by 20 minutes or 1 hour of reperfusion. Subjects will receive saline vehicle, a peptide conjugate (2.0 mg/kg s.c.), an aromatic-cationic peptide (an equivalent molar dose of aromatic-cationic peptide based on concentration of the aromatic-cationic peptide administered in the peptide conjugate group) SPN10 (an equivalent molar dose of SPN10 based on concentration of SPN10 administered in the peptide conjugate group), or SPN10(s) in combination with aromatic-cationic peptides (e.g., an equivalent molar dose of SPN10 based on the concentration of SPN10 administered in the peptide conjugate treatment group and an equivalent molar dose of aromatic-cationic peptide based on the concentration of aromatic-cationic peptide administered in the peptide conjugate treatment group) 30 minutes before ischemia and again at the time of reperfusion (n=4-5 in each group). It is anticipated that the peptide conjugate, aromatic-cationic peptide or SPN10(s) (with or without aromatic-cationic peptides) will improve oxygen consumption and ATP synthesis."}, "[4]": {"system": "normal, mobile mice", "assay": "Skeletal muscle size and mitochondrial function in normal, mobile mice", "type": "in vivo, mouse", "description": "1. Normal, mobile mice: Normal, mobile mice will be randomly divided into […], A-E, with 8 mice per group. Group A mice will receive an injection of saline vehicle; Group B mice will receive an i.p. injection of the peptide conjugate; Group C mice will receive an i.p. injection of aromatic-cationic peptide; Group D mice will receive an i.p. injection of SPN10; Group E mice will receive an i.p. injection of SPN10+aromatic-cationic peptide.\nPreparation of permeabilized muscle fibers. Permeabilized muscle fibers will be prepared as previously described. Korshunov, et al., FEBS Lett 416:15-18, 1997; Tonkonogi, et al., Pfliigers Arch 446:261-269, 2003. Briefly, the muscle will be trimmed of connective tissue and cut down to fiber bundles (4-8 mg wet wt). […]\nMitochondrial respiration in permeabilized fibers. Respiration will be measured polarographically in a respiration chamber maintained at 37° C. […] Flux through complex I will be measured using 5 mM pyruvate and 2 mM malate. […] Basal respiration (state 4) will be determined in the presence of 10 µg/mL oligomycin to inhibit ATP synthesis. The respiratory control ratio (RCR) will be calculated by dividing state 3 by state 4 respiration."}}, "note": "Residues, ends and D or L forms follow the SMILES beside them."}
{"smiles": "N=C(N)NCCC[C@H](NC(=O)[C@@H](N)Cc1c[nH]c2ccccc12)C(=O)N[C@@H](Cc1c[nH]c2ccccc12)C(=O)N[C@@H](CCCCN)C(N)=O", "note": "[SPN10, H-L-Trp-L-Arg-L-Trp-L-Lys-NH2] (H-WRWK-NH2)", "values": [{"measurement": "increase in caspase activity by t-BHP", "setting": "[1]", "value": "dose-dependently inhibited"}, {"measurement": "Ang II-induced Mitosox fluorescence (mitochondrial ROS)", "setting": "[2]", "value": "reduce Ang II-induced fluorescence to the level similar to that of saline-treated control cardiomyocytes"}, {"measurement": "oxygen consumption and ATP synthesis", "setting": "[3]", "value": "improve"}, {"measurement": "normal soleus muscle weight, RCR, mitochondrial state 3 and state 4 respiration", "setting": "[4]; mobile mice", "value": "no effect"}, {"measurement": "normal skeletal muscle size or mitochondrial function", "setting": "[4]; mouse, in vivo", "value": "no effect"}]}
